Test results reported in ChEMBL document CHEMBL3868595, “Plazomicin is effective in a non-human primate pneumonic plague model” (Bioorg Med Chem, 2016).

Experiments:
African green monkey [1] = assay: Toxicity in African green monkey 7653 model infected with Yersinia pestis Colorado 92 assessed as serum alanine aminotransferase level at 25 mg/kg, iv administered within 6 hrs post onset of sustained fever as 30 mins infusion for 10 days (reference value: 50 IU/L); assay type: organism-based; settings: chlorocebus sabaeus, in vivo
Yersinia pestis [2] = assay: Antibacterial activity against Yersinia pestis Colorado 92 infected in African green monkey B6415 model assessed as bacterial burden in lung at 25 mg/kg, iv administered within 6 hrs post onset of sustained fever as 30 mins infusion for 5 days (reference value: 7.7 10^8CFU/g); assay type: functional, CO92
Yersinia pestis [3] = assay: Antibacterial activity against Yersinia pestis Colorado 92 infected in African green monkey B6861 model assessed as bacterial burden in spleen at 6.25 mg/kg, iv administered within 6 hrs post onset of sustained fever as 30 mins infusion for 5 days (reference value: 1.6 10^9CFU/g); assay type: functional, CO92
Yersinia pestis [4] = assay: Antibacterial activity against Yersinia pestis Colorado 92 infected in African green monkey 8047 model assessed as bacterial burden in heart at 6.25 mg/kg, iv administered within 6 hrs post onset of sustained fever as 30 mins infusion for 10 days (reference value: 2.6 10^7CFU/g); assay type: functional, CO92
African green monkey [5] = assay: Toxicity in African green monkey 7929 model infected with Yersinia pestis Colorado 92 assessed as serum lactate dehydrogenase level at 25 mg/kg, iv administered within 6 hrs post onset of sustained fever as 30 mins infusion for 10 days (reference value: 653 IU/L); assay type: organism-based; settings: chlorocebus sabaeus, in vivo
Yersinia pestis [6] = assay: Antibacterial activity against Yersinia pestis Colorado 92 infected in African green monkey B6127 model assessed as bacterial burden in brain at 25 mg/kg, iv administered within 6 hrs post onset of sustained fever as 30 mins infusion for 10 days (reference value: 1.9 10^6CFU/g); assay type: functional, CO92
Yersinia pestis [7] = assay: Antibacterial activity against Yersinia pestis Colorado 92 infected in African green monkey B6672 model assessed as bacterial burden in liver at 12.5 mg/kg, iv administered within 6 hrs post onset of sustained fever as 30 mins infusion for 5 days (reference value: 5.2 10^8CFU/g); assay type: functional, CO92
Yersinia pestis [8] = assay: Antibacterial activity against Yersinia pestis Colorado 92 infected in African green monkey B6873 model assessed as bacterial burden in brain at 12.5 mg/kg, iv administered within 6 hrs post onset of sustained fever as 30 mins infusion for 5 days (reference value: 1.9 10^6CFU/g); assay type: functional, CO92
Yersinia pestis [9] = assay: Antibacterial activity against Yersinia pestis Colorado 92 infected in African green monkey B6988 model assessed as bacterial burden in lung at 6.25 mg/kg, iv administered within 6 hrs post onset of sustained fever as 30 mins infusion for 5 days (reference value: 7.7 10^8CFU/g); assay type: functional, CO92
African green monkey [10] = assay: Toxicity in African green monkey 7972 model infected with Yersinia pestis Colorado 92 assessed as serum creatinine level at 25 mg/kg, iv administered within 6 hrs post onset of sustained fever as 30 mins infusion for 10 days (reference value: 0.8 mg/dl); assay type: organism-based; settings: chlorocebus sabaeus, in vivo
African green monkey [11] = assay: Toxicity in African green monkey B5994 model infected with Yersinia pestis Colorado 92 assessed as serum creatinine level at 25 mg/kg, iv administered within 6 hrs post onset of sustained fever as 30 mins infusion for 10 days (reference value: 0.6 mg/dl); assay type: organism-based; settings: chlorocebus sabaeus, in vivo
Yersinia pestis [12] = assay: Antibacterial activity against Yersinia pestis Colorado 92 infected in African green monkey C2149 model assessed as bacterial burden in liver at 6.25 mg/kg, iv administered within 6 hrs post onset of sustained fever as 30 mins infusion for 5 days (reference value: 5.2 10^8CFU/g); assay type: functional, CO92
[13] = Cmax in African green monkey blood at 25 mg/kg administered as iv infusion twice daily for 7 consecutive days measured on day 7 by LC-MS/MS analysis; assay type: ADME, organism-based; parameters: dose 25 mg/kg, route intravenous; settings: chlorocebus aethiops
Yersinia pestis [14] = assay: Antibacterial activity against Yersinia pestis Colorado 92 infected in African green monkey C2149 model assessed as bacterial burden in kidney at 6.25 mg/kg, iv administered within 6 hrs post onset of sustained fever as 30 mins infusion for 5 days (reference value: 7.1 10^7CFU/g); assay type: functional, CO92
African green monkey [15] = assay: Toxicity in African green monkey 7653 model infected with Yersinia pestis Colorado 92 assessed as serum gamma glutamyl-transferase level at 25 mg/kg, iv administered within 6 hrs post onset of sustained fever as 30 mins infusion for 10 days (reference value: 37 IU/L); assay type: organism-based; settings: chlorocebus sabaeus, in vivo
[16] = Volume of distribution at steady state in African green monkey blood at 35 mg/kg administered as iv infusion twice daily for 7 consecutive days measured on day 7 by LC-MS/MS analysis; assay type: ADME, organism-based; settings: chlorocebus aethiops, read-out: Vdss

## CN[C@@H]1[C@@H](O)[C@@H](O[C@@H]2[C@@H](O)[C@H](O[C@H]3OC(CNCCO)=CC[C@H]3N)[C@@H](N)C[C@H]2NC(=O)[C@@H](O)CCN)OC[C@]1(C)O [PLAZOMICIN]
African green monkey [1]
  Activity: 48 IU/L
Yersinia pestis [2]
  Activity: 3.2 ×10⁹ CFU/g
Yersinia pestis [3]
  Activity: 95 CFU/g
Yersinia pestis [4]
  Activity: 2 ×10⁷ CFU/g
African green monkey [5]
  Activity: 496 IU/L
Yersinia pestis [6]
  Activity: 39 CFU/g
Yersinia pestis [7]
  Activity: 76 CFU/g
Yersinia pestis [8]
  Activity: 44 CFU/g
Yersinia pestis [9]
  Activity: 3.2 ×10⁸ CFU/g
African green monkey [10]
  Activity: 0.7 mg/dL
African green monkey [11]
  Activity: 0.5 mg/dL
Yersinia pestis [12]
  Activity: 1 ×10⁶ CFU/g
[13]
  Cmax: 106 µg/mL
Yersinia pestis [14]
  Activity: 16 CFU/g
African green monkey [15]
  Activity: 27 IU/L
[16]
  Vd: 0.31 L/kg
